Each structure is given as a SMILES string.

The IC50 is the concentration at which inhibition is half-maximal.

Chain of CD73 (P21589 27-574): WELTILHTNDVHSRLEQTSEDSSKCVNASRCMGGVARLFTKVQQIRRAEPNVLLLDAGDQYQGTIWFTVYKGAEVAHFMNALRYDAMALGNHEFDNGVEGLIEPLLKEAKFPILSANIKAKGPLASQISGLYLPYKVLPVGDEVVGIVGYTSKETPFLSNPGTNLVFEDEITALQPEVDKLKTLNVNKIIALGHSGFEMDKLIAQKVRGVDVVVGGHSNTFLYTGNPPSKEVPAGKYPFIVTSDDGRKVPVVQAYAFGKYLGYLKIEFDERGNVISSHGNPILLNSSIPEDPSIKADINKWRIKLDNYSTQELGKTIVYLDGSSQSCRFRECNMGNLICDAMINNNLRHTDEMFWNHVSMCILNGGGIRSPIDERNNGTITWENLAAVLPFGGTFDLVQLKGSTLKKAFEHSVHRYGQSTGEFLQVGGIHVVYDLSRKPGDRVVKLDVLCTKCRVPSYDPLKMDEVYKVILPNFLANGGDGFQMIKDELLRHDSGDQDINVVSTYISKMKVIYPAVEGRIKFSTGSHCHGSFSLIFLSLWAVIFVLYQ

This assay concerns the target CD73 (Homo sapiens (Human), UniProt P21589). In words: Biochemical Assay (CD73 inhibition, AMP hydrolysis, Malachite Green readout). The note with it: CD73 0.3208 nM, AMP 15 μM, Tris-HCl pH 7.4, Malachite Green absorbance. As for the experimental part:
Example A1: Biochemical Assay
Assay Reaction Conditions
• Assay Volume: 70 μl • Reaction Volume: 50 μl • CD73: 0.3208 nM • AMP: 15 μM • Assay Buffer: 2 5 mM Tris-HCL, pH 7.4, 0.01% Brij-35, 0.01% BSA, 5 mM MgCl2 Assay Procedure:
Made dose titration of testing compounds in assay buffer, 10 points ½ log titrations in duplicates starting at 100 μM.
Added 25 μl of CD73 to each well for a final concentration of 320 pM.
Incubated at RT for 15 min.
Added 25 μl of AMP to each well for a final concentration of 15 μM.
Incubated at RT for 10 min.
Added 10 μl of Malachite Green Reagent A, incubate at RT for 10 min.
Added 10 μl of Malachite Green Reagent B, incubate at RT for 45 min. […]
The ability of the compounds disclosed herein to inhibit CD73 activity was quantified and the respective IC50 values were determined. Table 1 provides the biochemical IC50 values of compounds disclosed herein.
Compound `CN(Cc1ccccc1Cl)c1nc(Cl)nc2c1nnn2[C@@H]1O[C@H](COCP(=O)(O)O)[C@@H](O)[C@H]1O` [Example 59, ((((2R,3S,4R,5R)-5-(5-chloro-7-((2-chlorobenzyl)(methyl)amino)-3H-[1,2,3]triazolo[4,5-d]pyrimidin-3-yl)-3,4-dihydroxytetrahydrofuran-2-yl)methoxy)methyl)phosphonic acid] came in with an IC50 of at most 500 nM.
With `O=P(O)(O)COC[C@H]1O[C@@H](n2nnc3c(NCC4CC4)nc(Cl)nc32)[C@H](O)[C@@H]1O` [Example 16, ((((2R,3S,4R,5R)-5-(5-Chloro-7-((cyclopropylmethyl)amino)-3H-[1,2,3]triazolo[4,5-d]pyrimidin-3-yl)-3,4-dihydroxytetrahydrofuran-2-yl)methoxy)methyl)phosphonic acid], the IC50 is at most 500 nM.
To `C[C@@H]1CCC[C@@H]1Nc1nc(Cl)nc2c1cnn2[C@@H]1O[C@H](COCP(=O)(O)O)[C@@H](O)[C@H]1O` [Example 104, ((((2R,3S,4R,5R)-5-(6-chloro-4-(((1S,2R)-2-methylcyclopentyl)amino)-1H-pyrazolo[3,4-d]pyrimidin-1-yl)-3,4-dihydroxytetrahydrofuran-2-yl)methoxy)methyl)phosphonic acid] belongs at most 500 nM; to `CN(c1nc(Cl)nc2c1cnn2[C@@H]1O[C@H](COCP(=O)(O)O)[C@@H](O)[C@H]1O)[C@H]1CCc2ccccc21` [Example 31, ((((2R,3S,4R,5R)-5-(6-chloro-4-(((S)-2,3-dihydro-1H-inden-1-yl)(methyl)amino)-1H-pyrazolo[3,4-d]pyrimidin-1-yl)-3,4-dihydroxytetrahydrofuran-2-yl)methoxy)methyl)phosphonic acid], at most 500 nM; to `O=P(O)(O)COC[C@H]1O[C@@H](n2ncc3c(NCC4CC(F)(F)C4)nc(Cl)nc32)[C@H](O)[C@@H]1O` [Example 86], at most 500 nM.
Then `O=P(O)(O)COC[C@H]1O[C@@H](n2ncc3c(NC[C@@H]4CCOC4)nc(Cl)nc32)[C@H](O)[C@@H]1O` [Example 71, ((((2R,3S,4R,5R)-5-(6-chloro-4-((((S)-tetrahydrofuran-3-yl)methyl)amino)-1H-pyrazolo[3,4-d]pyrimidin-1-yl)-3,4-dihydroxytetrahydrofuran-2-yl)methoxy)methyl)phosphonic acid], with at most 500 nM; and `CC(C)(O)c1nc(NC2CCCC2)c2cnn([C@@H]3O[C@H](COCP(=O)(O)O)[C@@H](O)[C@H]3O)c2n1` [Example 132, ((((2R,3S,4R,5R)-5-(4-(cyclopentylamino)-6-(2-hydroxypropan-2-yl)-1H-pyrazolo[3,4-d]pyrimidin-1-yl)-3,4-dihydroxytetrahydrofuran-2-yl)methoxy)methyl)phosphonic acid], with over 1000 nM.
To `CNc1nc(NCc2cccc(Cl)c2)c2cnn([C@@H]3O[C@H](COCP(=O)(O)O)[C@@H](O)[C@H]3O)c2n1` [Example 56, ((((2R,3S,4R,5R)-5-(4-((3-chlorobenzyl)amino)-6-(methylamino)-1H-pyrazolo[3,4-d]pyrimidin-1-yl)-3,4-dihydroxytetrahydrofuran-2-yl)methoxy)methyl)phosphonic acid] belongs over 1000 nM; to `CCC(CC)Nc1nc(Cl)nc2c1cnn2[C@@H]1O[C@H](COCP(=O)(O)O)[C@@H](O)[C@H]1O` [Example 78, ((((2R,3S,4R,5R)-5-(6-chloro-4-(pentan-3-ylamino)-1H-pyrazolo[3,4-d]pyrimidin-1-yl)-3,4-dihydroxytetrahydrofuran-2-yl)methoxy)methyl)phosphonic acid], at most 500 nM.
`CCNc1nc(Cl)nc2c1cnn2[C@@H]1O[C@H](COCP(=O)(O)O)[C@@H](O)[C@H]1O` [Example 43, ((((2R,3S,4R,5R)-5-(6-chloro-4-(ethylamino)-1H-pyrazolo[3,4-d]pyrimidin-1-yl)-3,4-dihydroxytetrahydrofuran-2-yl)methoxy)methyl)phosphonic acid]: the IC50 is at most 500 nM.
Then `C[C@@]1(O)[C@@H](COCP(=O)(O)O)O[C@@H](n2ncc3c(NCc4ccccc4Cl)nc(Cl)nc32)[C@@H]1O` [Example 19, ((((2R,3S,4R,5R)-5-(6-Chloro-4-((2-chlorobenzyl)amino)-1H-pyrazolo[3,4-d]pyrimidin-1-yl)-3,4-dihydroxy-3-methyltetrahydrofuran-2-yl)methoxy)methyl)phosphonic acid], with 500 to 1000 nM; and `O=P(O)(O)COC[C@H]1O[C@@H](n2nnc3c(N[C@H]4CCc5ccccc54)nc(Cl)nc32)[C@H](O)[C@@H]1O` [Example 12, ((((2R,3S,4R,5R)-5-(5-chloro-7-(((S)-2,3-dihydro-1H-inden-1-yl)amino)-3H-[1,2,3]triazolo[4,5-d]pyrimidin-3-yl)-3,4-dihydroxytetrahydrofuran-2-yl)methoxy)methyl)phosphonic acid], with at most 500 nM.
To `C[C@H](Nc1nc(Cl)nc2c1cnn2[C@@H]1O[C@H](CS(=O)(=O)CP(=O)(O)O)[C@@H](O)[C@H]1O)c1ccc(F)cc1` [Example 116, (((((2S,3S,4R,5R)-5-(6-chloro-4-(((S)-1-(4-fluorophenyl)ethyl)amino)-1H-pyrazolo[3,4-d]pyrimidin-1-yl)-3,4-dihydroxytetrahydrofuran-2-yl)methyl)sulfonyl)methyl)phosphonic acid] belongs at most 500 nM; to `O=C(CP(=O)(O)O)OC[C@H]1O[C@@H](n2ncc3c(NCc4ccccc4Cl)nc(Cl)nc32)[C@H](O)[C@@H]1O` [Example 1, (2-(((2R,3S,4R,5R)-5-(6-Chloro-4-((2-chlorobenzyl)amino)-1H-pyrazolo[3,4-d]pyrimidin-1-yl)-3,4-dihydroxytetrahydrofuran-2-yl)methoxy)-2-oxoethyl)phosphonic acid], at most 500 nM; to `CC1(C)CCC[C@H]1Nc1nc(Cl)nc2c1cnn2[C@@H]1O[C@H](COCP(=O)(O)O)[C@@H](O)[C@H]1O` [Example 103, ((((2R,3S,4R,5R)-5-(6-chloro-4-(((R)-2,2-dimethylcyclopentyl)amino)-1H-pyrazolo[3,4-d]pyrimidin-1-yl)-3,4-dihydroxytetrahydrofuran-2-yl)methoxy)methyl)phosphonic acid], at most 500 nM.
Then `O=P(O)(O)COC[C@H]1O[C@@H](n2ncc3c(N4CCCC4)nc(Cl)nc32)[C@H](O)[C@@H]1O` [Example 81, ((((2R,3S,4R,5R)-5-(6-chloro-4-(pyrrolidin-1-yl)-1H-pyrazolo[3,4-d]pyrimidin-1-yl)-3,4-dihydroxytetrahydrofuran-2-yl)methoxy)methyl)phosphonic acid], with at most 500 nM; and `O=P(O)(O)COC[C@H]1O[C@@H](n2ncc3c(NCCC4CC4)nc(Cl)nc32)[C@H](O)[C@@H]1O` [Example 94, ((((2R,3S,4R,5R)-5-(6-chloro-4-((2-cyclopropylethyl)amino)-1H-pyrazolo[3,4-d]pyrimidin-1-yl)-3,4-dihydroxytetrahydrofuran-2-yl)methoxy)methyl)phosphonic acid], with at most 500 nM.
`CN(Cc1cccc(Cl)c1)c1nc(Cl)nc2c1nnn2[C@@H]1O[C@H](COCP(=O)(O)O)[C@@H](O)[C@H]1O` [Example 39, ((((2R,3S,4R,5R)-5-(5-chloro-7-((3-chlorobenzyl)(methyl)amino)-3H-[1,2,3]triazolo[4,5-d]pyrimidin-3-yl)-3,4-dihydroxytetrahydrofuran-2-yl)methoxy)methyl)phosphonic acid] gave an IC50 of at most 500 nM.
As for `O=P(O)(O)CS(=O)(=O)C[C@H]1O[C@@H](n2ncc3c(NCC4CCC4)nc(Cl)nc32)[C@H](O)[C@@H]1O` [Example 111, (((((2S,3S,4R,5R)-5-(6-chloro-4-((cyclobutylmethyl)amino)-1H-pyrazolo[3,4-d]pyrimidin-1-yl)-3,4-dihydroxytetrahydrofuran-2-yl)methyl)sulfonyl)methyl)phosphonic acid], the IC50 is at most 500 nM.
To `CN(Cc1cccc(Cl)c1)c1nc(Cl)nc2c1cnn2[C@@H]1O[C@H](COCP(=O)(O)O)[C@@H](O)[C@H]1O` [Example 37, ((((2R,3S,4R,5R)-5-(6-chloro-4-((3-chlorobenzyl)(methyl)amino)-1H-pyrazolo[3,4-d]pyrimidin-1-yl)-3,4-dihydroxytetrahydrofuran-2-yl)methoxy)methyl)phosphonic acid] belongs at most 500 nM; to `O=P(O)(O)COC[C@H]1O[C@@H](n2ccc3c(NCC4CC4)nc(Cl)nc32)[C@H](O)[C@@H]1O` [Example 15, ((((2R,3S,4R,5R)-5-(2-Chloro-4-((cyclopropylmethyl)amino)-7H-pyrrolo[2,3-d]pyrimidin-7-yl)-3,4-dihydroxytetrahydrofuran-2-yl)methoxy)methyl)phosphonic acid], at most 500 nM.
To `CN(c1nc(Cl)nc2c1cnn2[C@@H]1O[C@H](COCP(=O)(O)O)[C@@H](O)[C@H]1O)C1CCCC1` [Example 53, ((((2R,3S,4R,5R)-5-(6-chloro-4-(cyclopentyl(methyl)amino)-1H-pyrazolo[3,4-d]pyrimidin-1-yl)-3,4-dihydroxytetrahydrofuran-2-yl)methoxy)methyl)phosphonic acid] belongs at most 500 nM; to `CN(Cc1ccccc1)c1nc(Cl)nc2c1cnn2[C@@H]1O[C@H](COCCP(=O)(O)O)[C@@H](O)[C@H]1O` [Example 5, (2-(((2R,3S,4R,5R)-5-(4-(Benzyl(methyl)amino)-6-chloro-1H-pyrazolo[3,4-d]pyrimidin-1-yl)-3,4-dihydroxytetrahydrofuran-2-yl)methoxy)ethyl)phosphonic acid], over 1000 nM; to `COCCN(c1nc(Cl)nc2c1cnn2[C@@H]1O[C@H](CS(=O)(=O)CP(=O)(O)O)[C@@H](O)[C@H]1O)C1CCCC1` [Example 133], at most 500 nM.
